Test results taken from patent EP1247803A2, “Indolinone compounds suitable for modulation of protein kinases” (Sugen, Inc., priority 1996, dated 1998).

Experiments:
[1] = biological target: T1, EGFR (Homo sapiens, UniProt P00533); assay: EGFR ELISA assay (in vitro kinase activity, EGFR captured from A431 cell lysate); format: biochemical; design: concentration or dose not given beside the values
T1 construct: Add 7 ug A431 cell lysate per well (EGFR source); endogenous in cells; host or cells: A431
Outline: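 Receptor autophosphorylation was read by ELISA: anti-phosphotyrosine serum and an HRP-linked secondary with ABTS substrate, absorbance at 410 nm (reference 630 nm). The reaction ran 5 min with 3 µM ATP and 5 mM MnCl2 and was quenched by 20 mM EDTA. Compounds were first incubated 30 min with antibody-captured EGFR from A431 cell lysate.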

[2] = system: MET; assay: MET biochemical kinase assay; design: species or system human; concentration or dose not given beside the values
Outline: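 Lysate-derived MET, or chimeric receptors, is immobilised on plates through an antibody to the human MET cytoplasmic region. Compounds are added along with kinase buffer supplying ATP and divalent metal ions, and receptor autophosphorylation is quantified by anti-phosphotyrosine ELISA.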

T1 sequence (P00533 25-1210): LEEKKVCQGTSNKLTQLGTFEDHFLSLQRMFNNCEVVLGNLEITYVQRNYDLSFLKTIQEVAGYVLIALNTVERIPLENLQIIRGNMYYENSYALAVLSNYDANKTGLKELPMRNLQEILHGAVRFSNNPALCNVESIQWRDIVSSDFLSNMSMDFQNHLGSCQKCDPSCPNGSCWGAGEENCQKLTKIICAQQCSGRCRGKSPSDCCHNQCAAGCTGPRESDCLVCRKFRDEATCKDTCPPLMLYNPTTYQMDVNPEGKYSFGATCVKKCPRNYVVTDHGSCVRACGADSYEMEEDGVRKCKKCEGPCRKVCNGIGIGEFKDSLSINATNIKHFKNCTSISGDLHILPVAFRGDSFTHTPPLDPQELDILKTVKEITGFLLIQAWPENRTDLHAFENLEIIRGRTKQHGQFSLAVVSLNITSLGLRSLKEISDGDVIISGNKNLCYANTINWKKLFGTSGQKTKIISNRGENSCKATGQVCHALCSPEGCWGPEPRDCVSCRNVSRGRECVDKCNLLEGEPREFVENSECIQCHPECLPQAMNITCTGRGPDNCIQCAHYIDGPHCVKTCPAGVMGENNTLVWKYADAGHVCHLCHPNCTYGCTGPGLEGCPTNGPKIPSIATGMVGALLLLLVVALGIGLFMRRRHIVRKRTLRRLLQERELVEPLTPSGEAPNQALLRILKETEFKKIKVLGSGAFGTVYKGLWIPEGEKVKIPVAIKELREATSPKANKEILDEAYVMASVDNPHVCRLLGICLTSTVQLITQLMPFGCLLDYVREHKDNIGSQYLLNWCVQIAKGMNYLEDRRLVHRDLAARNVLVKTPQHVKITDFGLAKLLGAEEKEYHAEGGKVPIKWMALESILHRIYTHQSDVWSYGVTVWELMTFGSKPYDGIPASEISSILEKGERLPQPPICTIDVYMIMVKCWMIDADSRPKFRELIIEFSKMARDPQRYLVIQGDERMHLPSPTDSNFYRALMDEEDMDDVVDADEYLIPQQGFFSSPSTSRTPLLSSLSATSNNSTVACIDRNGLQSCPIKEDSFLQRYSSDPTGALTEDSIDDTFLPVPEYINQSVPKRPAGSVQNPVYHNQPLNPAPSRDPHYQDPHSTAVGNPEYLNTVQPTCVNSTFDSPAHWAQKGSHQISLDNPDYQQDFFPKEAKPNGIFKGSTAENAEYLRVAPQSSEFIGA

In the case of `COc1ccc(C=C2C(=O)Nc3ccc(I)cc32)cc1OC` [10720/B04], the “Biochem EGFR %Inhibition” value [1] was 50.5% and the “Met Kinase % Inhibition” value [2] was 61.8%.
In the case of `O=C1Nc2ccc(I)cc2C1=Cc1ccccc1O` [10720/B05], the “Biochem EGFR %Inhibition” value [1] was 58.4% and the “Met Kinase % Inhibition” value [2] was 51.8%.
For `O=C1Nc2ccc(I)cc2C1=Cc1ccccc1` [10720/B06], the “Biochem EGFR %Inhibition” value [1] was 21.2% and the “Met Kinase % Inhibition” value [2] was 55.1%.
`CSc1ccc(C=C2C(=O)Nc3ccc(I)cc32)s1` [10720/B07] was tested, and the “Biochem EGFR %Inhibition” value [1] was 52.0% and the “Met Kinase % Inhibition” value [2] was 61.5%.
In the case of `Cc1cc(O)cc(O)c1C=C1C(=O)Nc2ccc(I)cc21` [10720/B08], the “Biochem EGFR %Inhibition” value [1] was -12.6% and the “Met Kinase % Inhibition” value [2] was 27.7%.
For `CCOc1cc(C=C2C(=O)Nc3ccc(I)cc32)ccc1O` [10720/B09], the “Biochem EGFR %Inhibition” value [1] was 37.6% and the “Met Kinase % Inhibition” value [2] was 57.4%.
`COc1ccc(O)c(C=C2C(=O)Nc3ccc(I)cc32)c1` [10720/B10] was tested, and the “Biochem EGFR %Inhibition” value [1] was 50.2% and the “Met Kinase % Inhibition” value [2] was 45.2%.
With `O=C1Nc2ccc(I)cc2C1=Cc1ncc[nH]1` [10720/B11] the “Biochem EGFR %Inhibition” value [1] was 22.4% and the “Met Kinase % Inhibition” value [2] was 42.1%.
In the case of `Cc1c(Br)ccc2c1C(=Cc1c(F)cc(F)cc1F)C(=O)N2` [10720/C02], the “Biochem EGFR %Inhibition” value [1] was 23.5% and the “Met Kinase % Inhibition” value [2] was 63.6%.
`COc1cc(O)ccc1C=C1C(=O)Nc2ccc(Br)c(C)c21` [10720/C03] was tested, and the “Biochem EGFR %Inhibition” value [1] was 0.9% and the “Met Kinase % Inhibition” value [2] was 50.3%.
With `COc1ccc(C=C2C(=O)Nc3ccc(Br)c(C)c32)cc1OC` [10720/C04] the “Biochem EGFR %Inhibition” value [1] was -13.1% and the “Met Kinase % Inhibition” value [2] was 29.0%.
In the case of `Cc1c(Br)ccc2c1C(=Cc1ccccc1O)C(=O)N2` [10720/C05], the “Biochem EGFR %Inhibition” value [1] was -15.3% and the “Met Kinase % Inhibition” value [2] was 72.5%.
With `Cc1c(Br)ccc2c1C(=Cc1ccccc1)C(=O)N2` [10720/C06] the “Biochem EGFR %Inhibition” value [1] was -9.7% and the “Met Kinase % Inhibition” value [2] was 36.7%.
With `CSc1ccc(C=C2C(=O)Nc3ccc(Br)c(C)c32)s1` [10720/C07] the “Biochem EGFR %Inhibition” value [1] was -25.4% and the “Met Kinase % Inhibition” value [2] was 26.7%.
In the case of `Cc1cc(O)cc(O)c1C=C1C(=O)Nc2ccc(Br)c(C)c21` [10720/C08], the “Biochem EGFR %Inhibition” value [1] was -1.1% and the “Met Kinase % Inhibition” value [2] was 65.6%.
With `CCOc1cc(C=C2C(=O)Nc3ccc(Br)c(C)c32)ccc1O` [10720/C09] the “Biochem EGFR %Inhibition” value [1] was 44.7% and the “Met Kinase % Inhibition” value [2] was 47.5%.
With `COc1ccc(O)c(C=C2C(=O)Nc3ccc(Br)c(C)c32)c1` [10720/C10] the “Biochem EGFR %Inhibition” value [1] was 2.0% and the “Met Kinase % Inhibition” value [2] was 62.6%.
For `Cc1c(Br)ccc2c1C(=Cc1ncc[nH]1)C(=O)N2` [10720/C11], the “Biochem EGFR %Inhibition” value [1] was -21.9% and the “Met Kinase % Inhibition” value [2] was 30.0%.
In the case of `CNS(=O)(=O)c1ccc2c(c1)C(=Cc1c(F)cc(F)cc1F)C(=O)N2` [10720/D02], the “Biochem EGFR %Inhibition” value [1] was 11.1% and the “Met Kinase % Inhibition” value [2] was 17.8%.
For `CNS(=O)(=O)c1ccc2c(c1)C(=Cc1ccc(O)cc1OC)C(=O)N2` [10720/D03], the “Biochem EGFR %Inhibition” value [1] was 0.9% and the “Met Kinase % Inhibition” value [2] was 61.5%.
